Test [1] concerns infantile spasms. Kind of test: Clinical trial of a composition comprising cannabidiol in subjects with infantile spasms, overnight video-EEG on day 14. The test is classed as in vivo. The note with it: human subjects 6 to 36 months who failed hormonal therapy and vigabatrin, CBD titrated to 40 mg/kg/day TID, control receives placebo. As for the experimental part:
Human subjects with video-EGG confirmed infantile spasms, between the ages of 6 months and 36 months, who have failed adequate treatments with hormonal therapy (adrenocorticotropic hormone (ACTH) (e.g., 150 IU/m2/day×2 weeks) and/or prednisolone (e.g., 8 mg/kg/day×2 weeks) and vigabatrin (e.g., 150 mg/kg/day×2 weeks)) will receive a composition comprising cannabidiol (“CBD”) according to the treatment schedule of Table 5. The control group receives placebo.
The 40 mg/kg/day treatment is optionally extended for up to one year in the cannabidiol group for subjects who display a response (FIG. 1). The cannabidiol dosage is tapered in the cannabidiol group according to Table 6.

Test [2] concerns infantile spasms. The note with it: high-dose study; intramuscular ACTH therapy; cited from earlier work.

Take `C=C(C)[C@@H]1CCC(C)=C[C@H]1c1c(O)cc(CCCCC)cc1O` [cannabidiol, (−)-trans-2-p-mentha-1,8-dien-3-yl-5-pentylresorcinol]: the “symptoms of infantile spasms on overnight video-EEG, cannabidiol group relative to control group” value in the test on infantile spasms [1] is “reduced symptoms of infantile spasms”.

On to “adrenocorticotropic hormone (SYSMEHFRWGKPVGKKRRPVKVYPNGAEDESAEAFPLEF; Corticotropin; UniProt P01189 138-176, looked up) [ACTH]”, for which the “patients with cessation of seizures and normal EEG patterns” value in the test with infantile spasms [2] was 13 of the 15.

Source of the values: patent publication US20160317468A1, “USES OF CANNABIDIOL FOR TREATMENT OF INFANTILE SPASMS” (priority 2015, published 2016).
